Structures are written as SMILES.

The experiment concerns the target T1, PPARδ (Homo sapiens, UniProt Q03181).
T1 construct: gene PPARD; pcDNA3-PPARδ expressed in HeLa cells
T1 sequence (Q03181 1-441): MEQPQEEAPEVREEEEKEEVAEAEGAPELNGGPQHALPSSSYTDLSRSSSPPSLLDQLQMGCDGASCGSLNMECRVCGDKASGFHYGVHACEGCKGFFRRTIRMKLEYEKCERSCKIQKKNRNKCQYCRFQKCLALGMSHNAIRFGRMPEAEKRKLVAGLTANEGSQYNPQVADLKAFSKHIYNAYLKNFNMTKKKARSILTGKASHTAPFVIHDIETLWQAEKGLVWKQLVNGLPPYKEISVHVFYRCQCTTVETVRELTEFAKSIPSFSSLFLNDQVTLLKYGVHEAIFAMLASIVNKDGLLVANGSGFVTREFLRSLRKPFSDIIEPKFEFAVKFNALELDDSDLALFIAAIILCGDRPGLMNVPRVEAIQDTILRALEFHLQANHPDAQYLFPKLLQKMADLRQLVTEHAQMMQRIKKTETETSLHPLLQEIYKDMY
Nature of the experiment: PPRE-luciferase transactivation assay in HeLa cells, single concentration ([…]). Type of experiment: cell-based. Particulars: read-out: PPRE-luciferase transactivation assay in HeLa cells, single concentration (10 μM).

On to `Cc1ccc(Cn2c(=N)n(CC(=O)O)c3ccccc32)cc1` [compound 5, [2-imino-3-(4-methylbenzyl)-2,3-dihydro-1H-benzimidazol-1-yl]acetic acid], for which the fold induction at 10 µM was 6.4.

(Values after paper PMC4358979, “Structure-Based Virtual Screening and Discovery of New PPARδ/γ Dual Agonist and PPARδ and γ Agonists” (PLoS ONE, 2015).)
